B1: CD40L: CD40 ligand, used in the form of CD40L transfected fibroblasts (protein, UniProt P29965 113-261, looked up)
CD40 ligand, soluble form: MQKGDQNPQIAAHVISEASSKTTSVLQWAEKGYYTMSNNLVTLENGKQLTVKRQGLYYIYAQVTFCSNREASSQAPFIASLCLKSPGRFERILLRAANTHSSAKPCGQQSIHLGGVFELQPGASVFVNVTDPSQVSHGTGFTSFGLLKL
modifications: expressed on transfected fibroblasts

Key:
[1] = test system: Raji cells; experiment: CD40 expression on Raji cells by flow cytometry; assay type: cell-based; details: 10 μM, 48 hours of incubation, vs DMSO control (FIG. 1)
[2] = test system: B-CLL cells; experiment: CD40 expression in cultured B-CLL cells (anti-CD40 APC antibody mean intensity); assay type: cell-based, human; details: for mean intensity of anti-CD40 APC antibody: CD5+ CD19+ CLL blasts from a newly diagnosed patient, 4 days in culture (FIG. 2)
[3] = test system: Namalwa cells; experiment: Proliferation of Namalwa cells alone, with control fibroblasts or with CD40L-expressing fibroblasts; assay type: cell-based; details: for sensitivity of Namalwa cells to CD40 ligation by CD40L: pre-treatment with compound, CD40L transfected fibroblasts (FIG. 4)
Excerpt: (§1) L929 cells are derived from an immortalized mouse fibroblast cell line, and are routinely used in in-vitro assays. The L929 cells used herein were obtained from the American Type Culture Collection (ATCC). Raji cells were also obtained from ATCC. Namalwa cells were obtained from the German Resource Centre for Biological Materials DSMZ. B-CLL cells were obtained from the peripheral blood of patients enrolled in a clinical trial.
(§2) Namalwa, Raji, CD40L-transfected fibroblasts and L929 fibroblasts were cultured in RPMI medium (Gibco-Invitrogen) supplemented with 10% FBS. B-CLL cells were cultured in Iscove's medium (Gibco-Invitrogen) plus 15% FBS. Namalwa, Raji and B-CLL cells were cultured with compounds from 2 to 4 days. Fibroblasts were maintained in culture in monolayers. The day before the co-culture, the fibroblasts were treated with mitomycin C to stop proliferation and were then replated. Suspension cells were then added to the fibroblasts and the culture was incubated for 2 to 4 days.
(§3) Flow cytometry was then used to determine cell numbers and the percentage of apoptotic cells using the FACSArray system (BD Biosciences). The cells were stained with 7-Amino-Actinomycin D (7-AAD) (BD Pharmingen) for 10 minutes at room temperature prior to flow cytometry analysis in order to identify non-viable cells.

[4] = test system: B-CLL cells; experiment: Response of B-CLL cells to CD40L-transfected fibroblasts after compound pre-treatment; assay type: cell-based, human; details: for response of B-CLL cells to CD40L treatment (percentage of viable cells per ml): relapsed patient at baseline, pre-treated 48 hours, then coculture with CD40L-transfected or control fibroblasts 48 hours (FIG. 5)
Excerpt: as §1, §2, §3
Pre-treatment with immunomodulatory compounds also augmented the sensitivity of Namalwa cells and CLL cells to CD40 ligation by CD40L. B-CLL cells taken from a relapsed patient at baseline were pre-treated with either 1,3-dioxo-2-(2,6-dioxopiperidin-3-yl)-4-aminoisoindoline or 1-oxo-2-(2,6-dioxopiperidin-3-yl)-4-aminoisoindoline for 48 hours. The cells were then cocultured with either CD40L-transfected fibroblasts or control fibroblasts for another 48 hours. The percentage of viable cells per ml was then measured (FIG. 5). Cells from another patient were pretreated with 1-oxo-2-(2,6-dioxopiperidin-3-yl)-4-aminoisoindoline for 24 hours and then cocultured with either CD40L-transfected fibroblasts or control fibroblasts for an additional 48 hours.

[5] = test system: CD19^+CD5^+ cells; experiment: CD40 on CD19+CD5+ cells of patients undergoing therapy, flow cytometry; assay type: in vivo, human
[6] = test system: normal primary B cells; experiment: Effect on normal primary B cells (p21 expression, viable cells); assay type: cell-based; details: for viable normal B cells: normal primary B cells in culture; for level of p21 expression: normal primary B cells, after 24 hours and 72 hours of culture
Protocol: as §3
Total RNA was isolated from Namalwa and B-CLL cells using RNAeasy (Qiagen). Gene expression analysis was performed using Affymetrix human U133A gene chips. Double-stranded cDNA was synthesized using […] of total RNA. Biotin-labeled cRNA was synthesized using a MessageAmp aRNA kit (Ambion). […] of cRNA was fragmented and hybridized to each array. The above procedures were performed twice for each RNA sample to obtain replicate biotin-labeled probes.
Cells cultured in the presence or absence of 1,3-dioxo-2-(2,6-dioxopiperidin-3-yl)-4-aminoisoindoline or 1-oxo-2-(2,6-dioxopiperidin-3-yl)-4-aminoisoindoline were characterized using flow cytometry and gene array analysis.

Row | Molecule | percentage of CD40+ cells [1] | mean intensity of anti-CD40 APC antibody [2] | sensitivity of Namalwa cells to CD40 ligation by CD40L [3] | response of B-CLL cells to CD40L treatment (total cells/ml) ([4]; newly diagnosed patient, pre-treated 0.1, 1.0 or 10 μM 24 hours, then CD40L-transfected or control fibroblasts 48 h (FIG. 6)) | response of B-CLL cells to CD40L treatment (percentage of viable cells per ml) [4] | CD40+ cells among CD19+CD5+ cells ([5]; patient of FIG. 7, after 8 days of therapy, baseline 6.4%) [%] | CD40+ cells among CD19+CD5+ cells ([5]; patient of FIG. 8, after 8 days of therapy, baseline 12.5%) [%] | CD40+ cells among CD19+CD5+ cells ([5]; patient of FIG. 9, after 28 days of therapy, baseline 2.4%) [%] | CD40 in B-CLL cells of patients ([5]; patients undergoing therapy, summary statement) | viable normal B cells [6] | level of p21 expression [6] | mean intensity of anti-CD40 APC antibody in CD5+CD19+ CLL blasts ([2]; newly diagnosed patient, 0.1, 1.0 or 10 μM, 24 hours, vs DMSO (FIG. 3)) | proliferation of Namalwa cells ([3]; 0.01-10 μM, alone or in the presence of control fibroblasts (FIG. 4)) | cell growth / cell apoptosis ([3]; Namalwa cells treated with CD40L transfected fibroblasts) | cell growth / cell apoptosis ([4]; B-CLL cells treated with CD40L transfected fibroblasts)
1 | Nc1cccc2c1CN(C1CCC(=O)NC1=O)C2=O (stereo not drawn) [1-oxo-2-(2,6-dioxopiperidin-3-yl)-4-aminoisoindoline] | increase the number of CD40^+ Raji cells | approximately doubled | increased the sensitivity of Namalwa cells to CD40 ligation by CD40L | increases the response of B-CLL cells to CD40L treatment | increases the response of B-CLL cells to CD40L treatment | 57.4 | 36.7 | 13.9 | upregulation of CD40 in B-CLL cells | dose-dependent increase in viable normal B cells | did not increase the level of p21 expression |  |  |  | 
2 | Nc1cccc2c1C(=O)N(C1CCC(=O)NC1=O)C2=O (stereo not drawn) [1,3-dioxo-2-(2,6-dioxopiperidin-3-yl)-4-aminoisoindoline] | increase the number of CD40^+ Raji cells | approximately doubled | increased the sensitivity of Namalwa cells to CD40 ligation by CD40L |  | increases the response of B-CLL cells to CD40L treatment |  |  |  |  | dose-dependent increase in viable normal B cells | did not increase the level of p21 expression | augments the expression of CD40 in a dose responsive manner | inhibiting cell proliferation in a dose dependent manner |  | 
3 | B1 |  |  |  |  |  |  |  |  |  |  |  |  |  | inhibit cell growth and/or augment cell apoptosis | inhibit cell growth and/or augment cell apoptosis

From patent US20090232796A1, “METHOD OF TREATING CANCER BY ADMINISTERING AN IMMUNOMODULATORY COMPOUND IN COMBINATION WITH A CD40 ANTIBODY OR CD40 LIGAND” (priority 2008, published 2009)
